Source: paper PMC9354954, “Assessing Bioavailability and Bioactivity of 4-Hydroxythiazolidine-2-Thiones, Newly Discovered Glucosinolate Degradation Products Formed During Domestic Boiling of Cabbage” (Frontiers in Nutrition, 2022)
Like-named read-outs stand apart in the source and are kept apart here.

Columns and labels:
HepG2 cells = experiment: Uptake into HepG2 cells (supernatant before and after cell lysis, LC-MS/MS); format: in vitro ADME, human; conditions: for Amount of analyte in supernatant after cell lysis / Amount of analyte in supernatant before cell lysis / Increase due to cell lysis: HepG2, 100 μM, 24 h
Description: Cells originated from a human liver cancer cell line (HepG2) were grown in RPMI-1640 medium + 10% FBS + 1% penicillin/streptomycin under cell culture conditions (37°C and 5% CO2 atmosphere) in T-75 flasks (Sarsted, Nümbrecht, Germany) until a confluence of approximately 50%. This medium and growing conditions were used for all experiments with HepG2 cells in this study. The medium was exchanged by fresh medium for control samples, or by fresh medium containing a concentration of 100 μM allyl HTT or 4-MSOB HTT. Afterward, the cells were incubated for an additional 24 h (each prepared for three cell passages). In the case of cell experiments, all allyl HTT or 4-MSOB HTT spiked media were sterile filtered using Filtropur S 0.2 sterile from Sarstedt AG & Co (Nümbrecht, Germany). After treatment, the medium of HepG2 cells (~80% confluence) was removed and cells were washed three times with 6 mL of PBS. In a second approach performed only for 4-MSOB HTT, treated cells were washed 6 times with 6 mL of PBS. The higher number of washing steps in the case of 4-MSOB HTT was chosen to remove the analyte residues from the former treatment medium more effectively. This enabled to detect a significant increase in analyte amount due to cell lysis when comparing the analyte amount in the supernatant before and after cell lysis, as only three washing steps for allyl HTT and control were not sufficient to detect a significant difference in 4-MSOB HTT amounts due to cell lysis treatment. Afterward, cells were detached from the surface by incubation with 1.5 mL trypsin/EDTA (1 x) for 5 min at 37°C. The cell suspension was transferred into a 2-mL micro reaction vessel and centrifuged for 2 min at 560 g. Then, the cell pellet was washed carefully twice with 1.5 mL of pure water to remove further residues of the analyte spiked medium and to reduce the salt concentration in the samples for LC-MS/MS measurements. For cell lysis, the micro reaction vessels with cell pellet and approximately 60 μL supernatant were sonicated for 15 min in an ultrasonic bath, followed by the addition of 40 μL of MeCN and an additional sonication step for 15 min. Afterward, the cell suspension was centrifuged for 3 min at 4,000 g, and the supernatant, as well as the supernatant before cell lysis, were analyzed by LC-MS/MS. A standard addition method was used, with added amounts of 3 pmol of allyl HTT and 1.2 pmol of 4-MSOB HTT. The mass spectrometry parameters were like QTRAP method 1 (see Section Uptake and Excretion of 4-Hydroxythiazolidine-2-Thiones From a Red Cabbage Meal – A Human Self-Experiment) with an injection volume of 10 μL. The used HPLC method 3 was a gradient of A = water and B = MeCN with 0 to 5 min 2% B, an increase to 14 min up to 98% B, holding for 5 min followed by a decrease to 2% B at 20 min and re-equilibration with 2% B for 4 min, using a flow rate of 300 μL/min, Agilent Zorbax Eclipse Plus C8 column (see Section Stability of 4-Hydroxythiazolidine-2-Thiones in a Stomach Model) and a column oven temperature of 35°C. The given results are the mean of the three biological replicates ± SD. […] The significance of the difference in analyte amount before and after cell lysis was determined by t-test for independent samples per variable using the STATISTICA version 13.5 software (StatSoft, Hamburg, Germany) with a significance level of p ≤ 0.05.

[1] = Antioxidant potential, ABTS assay; conditions: compared to compound free blank
Description: (§1) To evaluate the potential of allyl HTT and 4-MSOB HTT to act as antioxidants, ABTS and DPPH were used as model radicals and Trolox as reference antioxidants based on Shalaby and Shanab ([28]). In total, 1.5 mg of ABTS and 0.26 mg potassium peroxodisulfate were dissolved in 4 mL of pure water and incubated in the dark overnight at room temperature. Afterward, 36 mL of MeOH were added to obtain the fresh ABTS working solution. In the case of the DPPH assay, 1.1 mg of DPPH were dissolved in 4 mL of MeOH and incubated for 2 h in the dark at 4°C, followed by the addition of 36 mL of MeOH to obtain the fresh DPPH working solution. Standards of Trolox, allyl HTT, and 4-MSOB HTT were prepared in water/MeOH (90/10, v/v%) at concentrations in the range of 6.25–100 μM. To detect the antioxidant potential, 100 μL of standard or water/MeOH (90/10, v/v%) as control were added to 1,000 μL of ABTS or DPPH working solution, and the extinction was measured directly after mixing and after 6 min of incubation in the dark with a spectrometer (UviLine 9100, Schott Instruments, Mainz, Germany) at 734 nm in the case of ABTS assay and 515 nm in DPPH assay (each prepared as duplicate). The results are reported as mean ± SD of the reduction of the extinction compared to the control.

[2] = Antioxidant potential, DPPH assay; conditions: compared to compound free blank
Description: as §1

[3] = target: T1, glycogen synthase kinases-3β (Homo sapiens, UniProt P49841); experiment: GSK-3 inhibition, Z'-LYTE kinase assay; format: biochemical
T1 construct: purchased Life Technologies/Thermo Fisher Scientific, SelectScreen Services (Madison, WI, USA)
Description: (§2) The determination of the inhibition of glycogen synthase kinases-3α and -3β by allyl HTT and 4-MSOB HTT was performed via contract research with Life Technologies/Thermo Fisher Scientific by sending the compounds dissolved in 100% DMSO to SelectScreen Services (Madison, WI, USA). The tested concentrations in the Z'-LYTE assay were up to 100 μM and standards were prepared as duplicates. The Z'-LYTE kinase assay is a fluorescence-based assay using a coupled-enzyme format and the different sensitivity of phosphorylated and non-phosphorylated peptides regarding their fluorescence. The data are shown as mean ± SD. Due to the impression of significant bioactivity, further comparisons were performed. […] Stars report different significance levels: ^*p ≤ 0.05, ^**p ≤ 0.01, and ^***p ≤ 0.001.

[4] = target: T2, glycogen synthase kinases-3α (Homo sapiens, UniProt P49840); experiment: GSK-3 inhibition, Z'-LYTE kinase assay; format: biochemical
T2 construct: purchased Life Technologies/Thermo Fisher Scientific, SelectScreen Services (Madison, WI, USA)
Description: as §2

[5] = inverse exposure: spiked in the lower compartment, 2 min
[6] = inverse exposure: spiked in the lower compartment, 1 h
[7] = inverse exposure: spiked in the lower compartment, 2 h
[8] = inverse exposure: spiked in the lower compartment, 24 h
[9] = spiked in the upper compartment, 2 min
[10] = spiked in the upper compartment, 1 h
[11] = spiked in the upper compartment, 2 h
[12] = spiked in the upper compartment, 24 h

T2 sequence (P49840 whole entry): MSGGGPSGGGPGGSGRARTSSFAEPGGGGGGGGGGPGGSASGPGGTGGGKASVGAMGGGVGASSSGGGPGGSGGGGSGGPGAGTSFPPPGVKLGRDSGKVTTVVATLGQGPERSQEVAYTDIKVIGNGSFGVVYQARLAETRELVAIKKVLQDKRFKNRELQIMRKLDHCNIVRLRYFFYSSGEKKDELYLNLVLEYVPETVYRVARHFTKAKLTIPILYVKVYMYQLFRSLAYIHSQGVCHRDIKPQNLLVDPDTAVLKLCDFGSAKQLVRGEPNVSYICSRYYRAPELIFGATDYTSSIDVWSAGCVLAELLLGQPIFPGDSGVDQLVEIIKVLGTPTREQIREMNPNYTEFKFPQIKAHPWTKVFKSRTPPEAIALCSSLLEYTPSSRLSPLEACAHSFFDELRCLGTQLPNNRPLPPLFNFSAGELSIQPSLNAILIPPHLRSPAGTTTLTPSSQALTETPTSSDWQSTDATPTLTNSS
T1 sequence (P49841 whole entry): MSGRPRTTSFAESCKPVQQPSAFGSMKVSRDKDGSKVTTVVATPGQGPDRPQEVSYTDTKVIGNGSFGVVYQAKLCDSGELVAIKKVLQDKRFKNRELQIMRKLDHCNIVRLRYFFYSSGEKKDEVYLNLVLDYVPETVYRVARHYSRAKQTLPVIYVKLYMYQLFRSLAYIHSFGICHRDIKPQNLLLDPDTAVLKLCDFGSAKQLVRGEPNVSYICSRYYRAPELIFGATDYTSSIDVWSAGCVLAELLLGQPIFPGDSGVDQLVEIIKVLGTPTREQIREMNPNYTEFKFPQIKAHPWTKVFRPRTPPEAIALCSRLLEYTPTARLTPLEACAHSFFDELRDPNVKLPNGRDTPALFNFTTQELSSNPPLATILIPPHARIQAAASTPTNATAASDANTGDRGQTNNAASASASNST

| SMILES | Amount of analyte in supernatant after cell lysis (HepG2 cells; 3 washing steps) | Amount of analyte in supernatant before cell lysis (HepG2 cells; 3 washing steps) [fmol] | Increase due to cell lysis (HepG2 cells; 3 washing steps) [fmol] | Relative signal reduction of the extinction value of the radical ABTS ([1]; 6.25 µM) [%] | Relative signal reduction of the extinction value of the radical ABTS ([1]; 12.5 µM) [%] | Relative signal reduction of the extinction value of the radical ABTS ([1]; 25 µM) [%] | Relative signal reduction of the extinction value of the radical ABTS ([1]; 50 µM) [%] | Relative signal reduction of the extinction value of the radical ABTS ([1]; 100 µM) [%] | Relative signal reduction of the extinction value of the radical DPPH ([2]; 6.25 µM) [%] | Relative signal reduction of the extinction value of the radical DPPH ([2]; 12.5 µM) [%] | Relative signal reduction of the extinction value of the radical DPPH ([2]; 25 µM) [%] | Relative signal reduction of the extinction value of the radical DPPH ([2]; 50 µM) [%] | Relative signal reduction of the extinction value of the radical DPPH ([2]; 100 µM) [%] | Concentration ratio of compartment non-spiked vs. spiked (Caco-2 cell layer; [5]) [%] | Concentration ratio of compartment non-spiked vs. spiked (Caco-2 cell layer; [6]) [%] | Concentration ratio of compartment non-spiked vs. spiked (Caco-2 cell layer; [7]) [%] | Concentration ratio of compartment non-spiked vs. spiked (Caco-2 cell layer; [8]) [%] | Concentration ratio of compartment non-spiked vs. spiked (Caco-2 cell layer; [9]) [%] | Concentration ratio of compartment non-spiked vs. spiked (Caco-2 cell layer; [10]) [%] | Concentration ratio of compartment non-spiked vs. spiked (Caco-2 cell layer; [11]) [%] | also measured |
| --- | --- | --- | --- | --- | --- | --- | --- | --- | --- | --- | --- | --- | --- | --- | --- | --- | --- | --- | --- | --- | --- |
| C=CCN1C(=S)SCC1O (stereo not shown) [allyl HTT, 3-allyl-4-hydroxythiazolidine-2-thione] | 1,060 ± 140 fmol | 520 ± 170 | 540 ± 160 | -0.2 ± 0.3 | -0.3 ± 0.3 | 0.4 ± 0.4 | 0.3 ± 0.5 | -0.3 ± 0.3 | 0.2 ± 0.3 | 0.0 ± 0.3 | 0.1 ± 0.3 | 0.1 ± 0.3 | 0.0 ± 0.3 | 0 | 39 | 64 | 102 | 1 | 17 | 42 | measured ratio for the higher uptake of allyl HTT compared to 4-MSOB HTT (HepG2 cells; HepG2 cells): 27 fold; measured ratio for the higher uptake of allyl HTT compared to 4-MSOB HTT (Caco-2 cell layer; human, Caco-2, 100 μM): 10 fold; Concentration ratio of compartment non-spiked vs. spiked (Caco-2 cell layer; [12]): 96%; inhibition at 100 µM [3]: ~20% |
| C[S+]([O-])CCCCN1C(=S)SCC1O (stereo not shown) [4-MSOB HTT, 4-hydroxy-3-(4-(methylsulfinyl)butyl)thiazolidine-2-thione] | 810 ± 140 fmol | 760 ± 190 | 56 ± 55 | 0.6 ± 0.5 | -0.1 ± 0.5 | -0.5 ± 0.4 | 1.1 ± 0.8 | 0.4 ± 0.5 | 0.3 ± 0.4 | 0.0 ± 0.3 | 0.3 ± 0.3 | 0.3 ± 0.4 | 0.3 ± 0.4 | 0 | 5 | 11 | 99 | 0 | 1 | 3 | Amount of analyte in supernatant after cell lysis (HepG2 cells; 6 washing steps): 21 ± 5 fmol; Amount of analyte in supernatant before cell lysis (HepG2 cells; 6 washing steps): 1.7 ± 0.3 fmol; Increase due to cell lysis (HepG2 cells; 6 washing steps): 20 ± 5 fmol; Concentration ratio of compartment non-spiked vs. spiked (Caco-2 cell layer; [12]): 54%; inhibition at 100 µM [4]: ~29% |
